Results published in US6313127A, “Heterocyclic compounds useful as pharmaceutical agents” (Zeneca Limited, priority 1996, dated 2001).

Key:
oxido-squalene cyclase [1] = experiment: In vivo test to measure inhibition of oxido-squalene cyclase / cholesterol biosynthesis in the rat; details: 2 mg/kg, oral, female rats
Protocol: (b) In vivo Test to Measure Inhibition of Oxido-Squalene Cyclase
The ability of a compound to inhibit oxido-squalene cyclase and/or inhibit cholesterol biosynthesis may be assessed by a routine laboratory procedure carried out in the rat. The test involves administration of the compound to rats on a reversed lighting regimen. Female rats (35-55 g) are housed in reverse lighting conditions (red light from 0200 h-1400 h) for a period of about 2 weeks prior to test. Animals are allowed free access to chow and drinking water throughout this period. At test, animals should weigh 100-140 g. The rats are dosed orally, with the compound (typically 10-50 mg/kg) formulated in a polyethylene glycol/hydroxypropylmethyl cellulose mix. After 1 hour the rats are given […] sodium mevalonate (15 μCi/kg) intraperitoneally. Two hours after administration of the compound the rats are terminated and a piece of liver removed and weighed. The tissue is saponified at 80° C. for 2 hours in an ethaniolic/potassium hydroxide solution (80% w/v aqueous KOH diluted 1:10 with ethanol). Water (2 ml) is added and the mixture extracted with iso-hexane (2×5 ml). The organic extracts are combined, evaporated to dryness under a stream of nitrogen and the residue is dissolved in a mixture of acetonitrile/iso-propanol (300 μl). […] The radio-label content of each fraction is assessed using a radio chemical flow detector. […]

oxido-squalene cyclase [2] = experiment: In vitro test to measure inhibition of microsomal oxido-squalene cyclase; format: biochemical; details: 1 μM; rat liver microsomes
Protocol: (a) In vitro Test to Measure Inhibition of Oxido-squalene Cyclase
This test measures the inhibition of microsomal oxido-squalene cyclase in vitro by compounds at set concentrations in the incubation medium.
Microsomes are prepared from rat liver according to methods known in the art, for example, the method described in published European Patent Application No 324,421 and stored in liquid nitrogen prior to assay. Assay vials are kept at 37° C. throughout the incubation. The microsomes typically contain 15-20 mg of protein per ml of microsomes. For assay, 1 ml of microsomes are diluted by the addition of 722 μl of 50 mM phosphate buffer pH 7.4.
Phosphate buffered Tween 80 (polyoxyethylene sorbitan […]) is prepared by adding 0.1 g Tween 80 to 100 ml of 50 mM phosphate buffer.
A stock solution of oxido-squalene is made up as a solution in ethanol (0.65 mg.ml^-1). 18 μl of radio-labelled oxido-squalene (1 μCi.ml^-1) is evaporated to dryness under a stream of nitrogen and redissolved in 1 ml of ethanol and 1 ml of the stock solution of oxido-squalene is added.
The test compound is dissolved in dimethyl sulphoxide to give a 10^-4 M stock solution. […]
The samples are then placed in a water bath at 80° C. for 2 hours to saponify. […] Reaction rate is measured as the conversion of oxido-squalene to lanosterol, and the effects of test compounds are expressed as an inhibition of this process.

Structure (SMILES)	inhibition of cholesterol biosynthesis (oxido-squalene cyclase [1]) [%]	inhibition of oxido-squalene cyclase (conversion of oxido-squalene to lanosterol) (oxido-squalene cyclase [2]) [%]
Fc1cc(Br)ccc1CN1CCN(c2ccncc2)CC1 [Example 18, 1-(4-pyridyl)-4-(2-fluoro-4-bromobenzyl)piperazine]	59	–
O=S(=O)(c1ccc(Br)cc1)N1CCN(c2ccncc2)CC1 [Example 25, 1-(4-pyridyl)-4-(4-bromophenylsulphonyl)piperazine]	–	100
N#Cc1ccc(S(=O)(=O)Nc2ccc(N3CCN(c4ccncc4)CC3)cc2)cc1 [Example 27, 1-(4-pyridyl)-4-(4-cyanophenylsulphonamidophenyl)piperazine]	70	–
